Test [1] deals with Staphylococcus saprophyticus. As to the kind of experiment: Antibacterial activity against Staphylococcus saprophyticus ATCC 15305 after 24 hrs. The test is classed as functional. Conditions: ATCC 15305, 24 h.
For test [2], the system named is Enterococcus faecalis. As to the kind of experiment: Antibacterial activity against vancomycin-resistant Enterococcus faecalis isolate 1002 after 24 hrs. The test is classed as functional. The settings on record: isolate 1002, 24 h.
For test [3], the system named is Enterococcus faecalis. As to the kind of experiment: Antibacterial activity against vancomycin-resistant Enterococcus faecalis isolate 1004 after 24 hrs. Conditions: isolate 1004, 24 h. The test is classed as functional.
Test [4] concerns Bacillus subtilis (Bacillus subtilis). As to the kind of experiment: Antibacterial activity against Bacillus subtilis ATCC 6633 after 24 hrs. The settings on record: ATCC 6633, 24 h.
Test [5] deals with Enterococcus faecalis. The test can be described thus: Antibacterial activity against vancomycin-resistant Enterococcus faecalis isolate 1008 after 24 hrs. Conditions: isolate 1008, 24 h. The format is functional.
In test [6] the test system is Staphylococcus aureus. As to the kind of experiment: Antibacterial activity against methicillin-resistant Staphylococcus aureus ATCC 33591 after 24 hrs. The format is functional. The settings on record: ATCC 33591, 24 h.
Test [7] deals with Bacillus cereus. The test can be described thus: Antibacterial activity against Bacillus cereus ATCC 11788 after 24 hrs. Conditions: ATCC 11788, 24 h. The format is functional.
Test [8] concerns Enterococcus faecalis. As to the kind of experiment: Antibacterial activity against vancomycin-resistant Enterococcus faecalis ATCC 700802 after 24 hrs. The test is classed as functional. Conditions: ATCC 700802, 24 h.
Test [9] has as its system Staphylococcus aureus. As to the kind of experiment: Antibacterial activity against Staphylococcus aureus ATCC 29213 after 24 hrs. The settings on record: ATCC 29213, 24 h. The test is classed as functional.
The test system of test [10] is Staphylococcus saprophyticus. The test can be described thus: Antibacterial activity against Staphylococcus saprophyticus ATCC 49453 after 24 hrs. The format is functional. The settings on record: ATCC 49453, 24 h.
The subject of test [11] is Enterococcus faecalis. As to the kind of experiment: Antibacterial activity against vancomycin-resistant Enterococcus faecalis isolate 1001 after 24 hrs. The test is classed as functional. The settings on record: isolate 1001, 24 h.
Test [12] relates to Staphylococcus aureus. As to the kind of experiment: Antibacterial activity against Staphylococcus aureus 4299 after 24 hrs. The format is functional. Conditions: Staphylococcus aureus, 4299, 24 h.
For test [13], the system named is Staphylococcus aureus. As to the kind of experiment: Antibacterial activity against methicillin-resistant Staphylococcus aureus ATCC 700699 after 24 hrs. The test is classed as functional. Conditions: ATCC 700699, 24 h.
Test [14] has as its system Staphylococcus aureus. As to the kind of experiment: Antibacterial activity against methicillin-resistant Staphylococcus aureus isolate 42412 after 24 hrs. The test is classed as functional. The settings on record: isolate 42412, 24 h.
The subject of test [15] is Staphylococcus saprophyticus. The test can be described thus: Antibacterial activity against Staphylococcus saprophyticus ATCC BAA 750 after 24 hrs. The test is classed as functional. The settings on record: ATCC BAA 750, 24 h.
In test [16] the test system is Staphylococcus epidermidis. As to the kind of experiment: Antibacterial activity against Staphylococcus epidermidis 12228 after 24 hrs. The test is classed as functional. Conditions: Staphylococcus epidermidis, 12228, 24 h.
The subject of test [17] is Staphylococcus aureus. As to the kind of experiment: Antibacterial activity against methicillin-resistant Staphylococcus aureus isolate 21455 after 24 hrs. The settings on record: isolate 21455, 24 h. The format is functional.
The test system of test [18] is Enterococcus faecalis. The test can be described thus: Antibacterial activity against vancomycin-resistant Enterococcus faecalis ATCC 29212 after 24 hrs. The test is classed as functional. Conditions: ATCC 29212, 24 h.
The subject of test [19] is Staphylococcus saprophyticus. As to the kind of experiment: Antibacterial activity against Staphylococcus saprophyticus ATCC 49907 after 24 hrs. The test is classed as functional. The settings on record: ATCC 49907, 24 h.
For test [20], the system named is Staphylococcus aureus. The test can be described thus: Antibacterial activity against methicillin-resistant Staphylococcus aureus isolate 1003 after 24 hrs. The format is functional. Conditions: isolate 1003, 24 h.

From ChEMBL document CHEMBL4020828, “Design and Syntheses of Highly Potent Teixobactin Analogues against Staphylococcus aureus, Methicillin-Resistant Staphylococcus aureus (MRSA), and Vancomycin-Resistant Enterococci (VRE) in Vitro and in Vivo” (J Med Chem, 2018) come the findings set out here.

Converted amounts (≈) assume the structure as drawn. Positions of bridges follow the written chain, without caps; N, C: chain ends. Non-standard residues stand in square brackets, D forms with d. Residues, ends and D or L forms follow the SMILES beside them. dNMeF = CN[C@H](Cc1ccccc1)C(=O)O A value given as a limit tells only on which side of the number the result lay.

Consider `CC[C@@H](C)[C@@H](NC(=O)[C@@H](CCC(N)=O)NC(=O)[C@H](CCCNC(=N)N)NC(=O)[C@@H](NC(=O)[C@@H](Cc1ccccc1)NC)[C@@H](C)CC)C(=O)N[C@H](C(=O)N[C@@H](CO)C(=O)N[C@H]1C(=O)N[C@@H](C)C(=O)N[C@@H](CC(C)C)C(=O)N[C@@H]([C@@H](C)CC)C(=O)O[C@H]1C)[C@@H](C)CC` (H-[dNMeF]IR[dQ][dI]IS[dT]ALI; ester 8-C), for which the MIC is less than 0.0625 µg/mL in test [1]; 0.5 µg/mL (≈ 0.394 µM) in test [2]; less than 0.0625 µg/mL in test [3]; less than 0.0625 µg/mL in [4]; 0.125 µg/mL (≈ 0.0984 µM) in test [5]; 0.125 µg/mL (≈ 0.0984 µM) in [6]. For the same compound, the minimal inhibitory concentration (MIC) is less than 0.0625 µg/mL in test [7]; 0.5 µg/mL (≈ 0.394 µM) in test [8]; 0.25 µg/mL (≈ 0.197 µM) in [9]; less than 0.0625 µg/mL in test [10]; 0.25 µg/mL (≈ 0.197 µM) in [11]; 0.125 µg/mL (≈ 0.0984 µM) in test [12]. For the same compound, the minimum inhibitory concentration (MIC) is 0.5 µg/mL (≈ 0.394 µM) in test [13]; less than 0.0625 µg/mL in test [14]; less than 0.0625 µg/mL in [15]; less than 0.0625 µg/mL in test [16]; 0.0312 µg/mL (≈ 0.0246 µM) in test [17]; 0.5 µg/mL (≈ 0.394 µM) in test [18]. The minimal inhibitory concentration (MIC) in test [19] and in test [20] was less than 0.0625 µg/mL in each case.

As to `CC[C@@H](C)[C@@H](NC(=O)[C@@H](CCC(N)=O)NC(=O)[C@H](CCCNC(=N)N)NC(=O)[C@@H](NC(=O)[C@@H](Cc1ccccc1)NC)[C@@H](C)CC)C(=O)N[C@H](C(=O)N[C@@H](CO)C(=O)N[C@H]1C(=O)N[C@@H](CCCNC(=N)N)C(=O)N[C@@H](CC(C)C)C(=O)N[C@@H]([C@@H](C)CC)C(=O)O[C@H]1C)[C@@H](C)CC` (H-[dNMeF]IR[dQ][dI]IS[dT]RLI; ester 8-C), the MIC in test [1] was less than 0.0625 µg/mL; in [2], 1 µg/mL (≈ 0.738 µM); in test [3] it was 0.5 µg/mL (≈ 0.369 µM); in test [4], less than 0.0625 µg/mL; in [5] it was 0.5 µg/mL (≈ 0.369 µM); in test [6] it was 1 µg/mL (≈ 0.738 µM). Also, the minimal inhibitory concentration (MIC) was 1 µg/mL (≈ 0.738 µM) in test [7]; 1 µg/mL (≈ 0.738 µM) in test [8]; 1 µg/mL (≈ 0.738 µM) in test [9]; less than 0.0625 µg/mL in [10]; 0.5 µg/mL (≈ 0.369 µM) in [11]; 0.5 µg/mL (≈ 0.369 µM) in test [12]. Besides, the minimum inhibitory concentration (MIC) in [13] was 1 µg/mL (≈ 0.738 µM); in test [14] it was 0.25 µg/mL (≈ 0.184 µM); in [15], less than 0.0625 µg/mL; in test [16] it was less than 0.0625 µg/mL; in test [17], 1 µg/mL (≈ 0.738 µM); in [18] it was 1 µg/mL (≈ 0.738 µM). For the same compound, the MIC in [19] is less than 0.0625 µg/mL; in test [20], 2 µg/mL (≈ 1.48 µM).

Regarding `CC[C@@H](C)[C@@H](NC(=O)[C@@H](CCCNC(=N)N)NC(=O)[C@H](CCCNC(=N)N)NC(=O)[C@@H](NC(=O)[C@@H](Cc1ccccc1)NC)[C@@H](C)CC)C(=O)N[C@H](C(=O)N[C@@H](CO)C(=O)N[C@H]1C(=O)N[C@@H](C)C(=O)N[C@@H](CC(C)C)C(=O)N[C@@H]([C@@H](C)CC)C(=O)O[C@H]1C)[C@@H](C)CC` (H-[dNMeF]IR[dR][dI]IS[dT]ALI; ester 8-C), the minimum inhibitory concentration (MIC) in [1] is less than 0.0625 µg/mL; in test [2], 1 µg/mL (≈ 0.77 µM); in test [3], 0.5 µg/mL (≈ 0.385 µM); in test [4] it was less than 0.0625 µg/mL; in [5] it was 0.5 µg/mL (≈ 0.385 µM); in [6] it was 0.25 µg/mL (≈ 0.193 µM). Moreover, the minimum inhibitory concentration (MIC) was 1 µg/mL (≈ 0.77 µM) in test [7]; 2 µg/mL (≈ 1.54 µM) in test [8]; 0.25 µg/mL (≈ 0.193 µM) in test [9]; less than 0.0625 µg/mL in test [10]; 1 µg/mL (≈ 0.77 µM) in test [11]; 0.25 µg/mL (≈ 0.193 µM) in test [12]. Moreover, the MIC in [13] was 0.5 µg/mL (≈ 0.385 µM); in [14] it was 0.25 µg/mL (≈ 0.193 µM); in test [15], less than 0.0625 µg/mL; in [16], less than 0.0625 µg/mL; in test [17], 0.5 µg/mL (≈ 0.385 µM); in [18], 1 µg/mL (≈ 0.77 µM). In addition, the minimum inhibitory concentration (MIC) in test [19] is less than 0.0625 µg/mL; in [20] it was 1 µg/mL (≈ 0.77 µM).

For the compound `CC[C@@H](C)[C@@H](NC(=O)[C@@H](CCCNC(=N)N)NC(=O)[C@H](CCCNC(=N)N)NC(=O)[C@@H](NC(=O)[C@@H](Cc1ccccc1)NC)[C@@H](C)CC)C(=O)N[C@H](C(=O)N[C@@H](CO)C(=O)N[C@H]1C(=O)N[C@@H](CCCNC(=N)N)C(=O)N[C@@H](CC(C)C)C(=O)N[C@@H]([C@@H](C)CC)C(=O)O[C@H]1C)[C@@H](C)CC` (H-[dNMeF]IR[dR][dI]IS[dT]RLI; ester 8-C), the MIC in [1] is 0.25 µg/mL (≈ 0.181 µM); in [2] it was 8 µg/mL (≈ 5.78 µM); in [3] it was 4 µg/mL (≈ 2.89 µM); in test [4], less than 0.0625 µg/mL; in test [5], 8 µg/mL (≈ 5.78 µM); in test [6] it was 1 µg/mL (≈ 0.723 µM). Also, the MIC in test [7] was 1 µg/mL (≈ 0.723 µM); in test [8] it was 4 µg/mL (≈ 2.89 µM); in test [9], 1 µg/mL (≈ 0.723 µM); in test [10] it was less than 0.0625 µg/mL; in test [11], 2 µg/mL (≈ 1.45 µM); in test [12] it was 1 µg/mL (≈ 0.723 µM). Besides, the MIC in [13] was 2 µg/mL (≈ 1.45 µM); in test [14] it was 2 µg/mL (≈ 1.45 µM); in test [15], less than 0.0625 µg/mL; in test [16], less than 0.0625 µg/mL; in test [17], 2 µg/mL (≈ 1.45 µM); in test [18], 4 µg/mL (≈ 2.89 µM). Besides, the MIC was less than 0.0625 µg/mL in test [19] and 2 µg/mL (≈ 1.45 µM) in test [20].
